Source: US20040047823A1, “Use of ergothioneine and/or its derivatives as an anti-pollution agent” (priority 2003, published 2004)

Test system: human keratinocytes
Experiment: Protective effect against ozone-induced peroxides in human keratinocytes (2,7-dichlorofluorescine diacetate / DCF fluorescence)
Format: cell-based
Settings: for % fluorescence observed ±SEM, expressed as % relative to the unprotected controls: ergothioneine 1 mM (24 h pretreatment at 0.5 mM), n=4; for drop in induced stress: ergothioneine 1 mM
Procedure: In a first stage, human keratinocytes obtained from plastic surgeries, inoculated beforehand on D-3 into a 48-well dish at a rate of 25 000 cells/cm^2, are pretreated with ergothioneine dissolved in the culture medium for 24 hours, at a final concentration of 0.5 mM. A marker, 0,2,7-dichlorofluorescine diacetate, is then incorporated: after removing the ergothioneine solution and rinsing with PBS, the human keratinocytes are placed in contact for 30 minutes with a solution of 2,7-dichlorofluorescine diacetate (320 μM in phosphate-buffered saline PBS) at a rate of 500 μl per well, and are then rinsed again with PBS. The cells are then exposed to ozone: after placing the cells in contact with a fresh solution of ergothioneine in PBS at a concentration of 1 mM, at a rate of 100 μl per well, the cells are exposed to ozone in an incubator (37° C., humid atmosphere) with an ozone concentration of 10 ppm. The effects induced by the ozone are then measured by measuring the appearance of 2,7-dichloroflorescine (DCF: excitation at 485 nm and emission at 530 nm) after different exposure times: 0, 5, 10 and 20 minutes. Four independent experiments were performed and each measurement was repeated six times. The appearance of ozone-generated peroxides in the cell is reflected by an increase in the fluorescence. For each time, the fluorescence values of the unprotected controls are set at 100%. The results, in the presence of ergothioneine, are then expressed relative to this control value. A reduction in this value indicates a protective effect of the extract.

C[N+](C)(C)[C@@H](Cc1c[nH]c(=S)[nH]1)C(=O)[O-] [ergothioneine]
% fluorescence observed ±SEM, expressed as % relative to the unprotected controls (5 min. of contact with ozone 10 ppm): 18.9 ± 2.4%
drop in induced stress (5 minutes of exposure to ozone 10 ppm): 81.1%
% fluorescence observed ±SEM, expressed as % relative to the unprotected controls (10 min. of contact with ozone 10 ppm): 25.9 ± 3.8%
drop in induced stress (10 minutes of exposure to ozone 10 ppm): 74.1%
% fluorescence observed ±SEM, expressed as % relative to the unprotected controls (20 min. of contact with ozone 10 ppm): 51.4 ± 10.2%
drop in induced stress (20 minutes of exposure to ozone 10 ppm): 48.6%
